Measured values published in patent publication EP1542016A1, “PUMA, phosphorylated p53 and p38 map kinase as markers for HIV-1-induced apoptosis in circulating T cells of infected patient” (Institut Gustave Roussy, priority 2003, dated 2005).

System: Jurkat cells
Assay: Apoptosis and Puma induction by recombinant gp120 protein in Jurkat cells
Assay type: cell-based
Conditions: four days, gp120 500 ng/ml, cyclic pifithrin-α 10 µM, Fig. 8E
Method: Figure 8D. Induction of Puma by recombinant gp120 protein in Jurkat cells (as in figure 8B).
Figure 8E. Effect of cyclic pifithrin-alpha. Jurkat cells were treated for four days with gp120 protein (500 ng/ml) and or cyclic pifithrin-α (10 µM), followed by determination of Puma expression.
HeLa cells stably transfected with the Env gene of HIV-1 LAI (HeLa Env) and HeLa cells transfected with CD4 (HeLa CD4) were cocultured at a 1:1 ratio (6), in DMEM medium supplemented with 10 % FCS, L-glutamine, in the absence or presence of roscovitin (1 µM), rapamycin (1 µM, Sigma), cyclic pifithrin-α (10 µM), MG132 (5 µM, Calbiochem), the NF-κB-inhibitory peptide SN50, or its negative control SN50M (20 µM, Biomol). HeLa/U937 cell co-cultures were performed at different ratios (6). U937 or Jurkat cells were cultured with recombinant gp120 protein (500 ng/ml).

With Cc1ccc(-c2cn3c4c(sc3n2)CCCC4)cc1 [pifithrin-α, cyclic pifithrin-α] the “gp120-induced apoptosis and Puma expression” value was “strongly inhibited”.
